pIC50: −log10 of the molar value.

The assay can be described thus: Inhibitory concentration in CCR4-transfected murine pre-B L1.2 cells (chemotaxis assay).

The pIC50 is the negative decadic logarithm of the IC50, by convention in mol/L. Read a high pIC50 as a small IC50. In turn, `CCN(CC)CCCC(C)Nc1nccc(NCc2ccc(Cl)cc2Cl)n1` (stereo unspecified) [N*4*-(2,4-Dichloro-benzyl)-N*2*-(4-diethylamino-1-methyl-butyl)-pyrimidine-2,4-diamine] had a pIC50 of 5.30.

The values above are taken from BindingDB's records for doi:10.1016/j.bmcl.2005.02.084 (Bristol-Myers Squibb Pharmaceutical Research Institute, 2005).
